The values below come from US10987359B2, “Oxadiazepinone derivatives and methods of treating hepatitis B infections” (priority 2016, dated 2021).

For the assay, the system named is HBV. The assay can be described thus: HBV replication inhibition assay (BDNA assay) in HepG2.2.15 cells. The format is cell-based. The conditions noted are these: HepG2.2.15 cells, read-out: DNA EC50. A digest of the protocol:
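HepG2.2.15 cells with stably integrated HBV were treated with serially diluted compounds at 0.5% DMSO for 6 days, with medium and compound refreshed at day 3. Encapsidated HBV DNA from DNase-treated supernatant was quantified by branched DNA assay. EC50 came from % inhibition versus DMSO, fitted non-linearly.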

Setting [1] is: Hepatitis B virus, HepG2.2.15, HBV replication assay (BDNA assay).

Read-outs that look alike come from different tables or passages of the source.

The term EC50 denotes the concentration needed to bring the measured effect to its halfway point.

For `CCOCC1Cn2nc3c(c2C(=O)N(C)O1)CN(C(=O)Nc1ccc(F)c(Cl)c1)CC3` (stereo not drawn) [Compound 101, N-(3-chloro-4-fluoro-phenyl)-4-(ethoxymethyl)-2-methyl-1-oxo-5,8,9,11-tetrahydro-4H-pyrido[2,3]pyrazolo[2,4-d][1,2,5]oxadiazepine-10-carboxamide], the concentration giving a half-maximal response (EC50) under setting [1] is 1 to 100 nM.

On to `C=CCOCC1Cn2nc3c(c2C(=O)N(C)O1)CN(C(=O)Nc1ccc(F)c(Cl)c1)CC3` (stereo not drawn) [Compound 102, 4-(allyloxymethyl)-N-(3-chloro-4-fluoro-phenyl)-2-methyl-1-oxo-5,8,9,11-tetrahydro-4H-pyrido[2,3]pyrazolo[2,4-d][1,2,5]oxadiazepine-10-carboxamide], for which the EC50 under setting [1] lay in the range of 1 to 100 nM.

`CCCOCC1Cn2nc3c(c2C(=O)N(C)O1)CN(C(=O)Nc1ccc(F)c(Cl)c1)CC3` (stereo not drawn) [Compound 103, N-(3-chloro-4-fluoro-phenyl)-2-methyl-1-oxo-4-(propoxymethyl)-5,8,9,11-tetrahydro-4H-pyrido[2,3]pyrazolo[2,4-d][1,2,5]oxadiazepine-10-carboxamide]: under setting [1], the 50% effective concentration (EC50) fell in the range of 1 to 100 nM.

As for `CN1OC(COCC2CC2)Cn2nc3c(c2C1=O)CN(C(=O)Nc1ccc(F)c(Cl)c1)CC3` (stereo not drawn) [Compound 104, N-(3-chloro-4-fluoro-phenyl)-4-(cyclopropylmethoxymethyl)-2-methyl-1-oxo-5,8,9,11-tetrahydro-4H-pyrido[2,3]pyrazolo[2,4-d][1,2,5]oxadiazepine-10-carboxamide], the concentration giving a half-maximal response (EC50) under setting [1] lay in the range of 1 to 100 nM.

Take `CN1OC(COCC(F)F)Cn2nc3c(c2C1=O)CN(C(=O)Nc1ccc(F)c(Cl)c1)CC3` (stereo not drawn) [Compound 105, N-(3-chloro-4-fluoro-phenyl)-4-(2,2-difluoroethoxymethyl)-2-methyl-1-oxo-5,8,9,11-tetrahydro-4H-pyrido[2,3]pyrazolo[2,4-d][1,2,5]oxadiazepine-10-carboxamide]: under setting [1], the EC50 lay within 1 to 100 nM.

For the compound `CN1OC(COCC(F)(F)F)Cn2nc3c(c2C1=O)CN(C(=O)Nc1ccc(F)c(Cl)c1)CC3` (stereo not drawn) [Compound 106, N-(3-chloro-4-fluoro-phenyl)-2-methyl-1-oxo-4-(2,2,2-trifluoroethoxymethyl)-5,8,9,11-tetrahydro-4H-pyrido[2,3]pyrazolo[2,4-d][1,2,5]oxadiazepine-10-carboxamide], under setting [1], the 50% effective concentration (EC50) lay in the range of 1 to 100 nM.

For `[2H]C([2H])([2H])N1OC(CO)Cn2nc3c(c2C1=O)CN(C(=O)Nc1ccc(F)c(Cl)c1)CC3` (stereo not drawn) [Compound 107, N-(3-chloro-4-fluoro-phenyl)-4-(hydroxymethyl)-1-oxo-2-(trideuteriomethyl)-5,8,9,11-tetrahydro-4H-pyrido[2,3]pyrazolo[2,4-d][1,2,5]oxadiazepine-10-carboxamide], the EC50 under setting [1] was in the range of 1 to 100 nM.

Turning to `CN1OC(CN)Cn2nc3c(c2C1=O)CN(C(=O)Nc1ccc(F)c(Cl)c1)CC3` (stereo not drawn) [Compound 113, 4-(aminomethyl)-N-(3-chloro-4-fluoro-phenyl)-2-methyl-1-oxo-5,8,9,11-tetrahydro-4H-pyrido[2,3]pyrazolo[2,4-d][1,2,5]oxadiazepine-10-carboxamide], the EC50 under setting [1] was 1 to 100 nM.

For the compound `CNC(=O)C1Cn2nc3c(c2C(=O)N(C)O1)CN(C(=O)Nc1ccc(F)c(Cl)c1F)CC3` (stereo not drawn) [Compound 118, N10-(3-chloro-2,4-difluorophenyl)-N4,2-dimethyl-1-oxo-1,4,5,8,9,11-hexahydropyrido[4′,3′:3,4]pyrazolo[5,1-d][1,2,5]oxadiazepine-4,10(2H)-dicarboxamide], the concentration for a half-maximal effect (EC50) under setting [1] was in the range of 1 to 100 nM.

As for `CNC(=O)C1Cn2nc3c(c2C(=O)N(C)O1)CN(C(=O)Nc1cc(Cl)c(F)cc1F)CC3` (stereo not drawn) [Compound 119, N10-(5-chloro-2,4-difluorophenyl)-N4,2-dimethyl-1-oxo-1,4,5,8,9,11-hexahydropyrido[4′,3′:3,4]pyrazolo[5,1-d][1,2,5]oxadiazepine-4,10(2H)-dicarboxamide], the EC50 under setting [1] is 100 to 500 nM.

On to `CNC(=O)C1Cn2nc3c(c2C(=O)N(C)O1)CN(C(=O)Nc1ccc(F)c(C#N)c1)CC3` (stereo not drawn) [Compound 120, N10-(3-cyano-4-fluorophenyl)-N4,2-dimethyl-1-oxo-1,4,5,8,9,11-hexahydropyrido[4′,3′:3,4]pyrazolo[5,1-d][1,2,5]oxadiazepine-4,10(2H)-dicarboxamide], for which, under setting [1], the EC50 was in the range of 100 to 500 nM.

Consider `C[C@@H]1Cc2nn3c(c2CN1C(=O)Nc1cc(Cl)c(F)cc1F)C(=O)N(C)OC(COCC(F)F)C3` (stereo partly drawn) [Compound 127_D1, (45*,9R)—N-(5-chloro-2,4-difluorophenyl)-4-((2,2-difluoroethoxy)methyl)-2,9-dimethyl-1-oxo-1,4,5,8,9,11-hexahydropyrido[4′,3′:3,4]pyrazolo[5,1-d][1,2,5]oxadiazepine-10(2H)-carboxamide], for which the EC50 (HBV replication assay (BDNA assay)) lay in the range of 100 to 500 nM.

Consider `CN1OC(COC(F)(F)F)Cn2nc3c(c2C1=O)CN(C(=O)Nc1ccc(F)c(Cl)c1)CC3` (stereo not drawn) [Compound 128, N-(3-chloro-4-fluorophenyl)-2-methyl-1-oxo-4-((trifluoromethoxy)methyl)-1,4,5,8,9,11-hexahydropyrido[4′,3′:3,4]pyrazolo[5,1-d][1,2,5]oxadiazepine-10(2H)-carboxamide], for which, under setting [1], the EC50 was in the range of 1 to 100 nM.

In the case of `CN1OC(CNS(=O)(=O)CC(F)(F)F)Cn2nc3c(c2C1=O)CN(C(=O)Nc1ccc(F)c(Cl)c1)CC3` (stereo not drawn) [Compound 130, N-(3-chloro-4-fluorophenyl)-2-methyl-1-oxo-4-(((2,2,2-trifluoroethyl)sulfonamido)methyl)-1,4,5,8,9,11-hexahydropyrido[4′,3′:3,4]pyrazolo[5,1-d][1,2,5]oxadiazepine-10(2H)-carboxamide], under setting [1], the EC50 lay within 1 to 100 nM.

On to `CN1OC(C(=O)N2CC(F)(F)C2)Cn2nc3c(c2C1=O)CN(C(=O)Nc1ccc(F)c(Cl)c1)CC3` (stereo not drawn) [Compound 131, N-(3-chloro-4-fluorophenyl)-4-(3,3-difluoroazetidine-1-carbonyl)-2-methyl-1-oxo-1,4,5,8,9,11-hexahydropyrido[4′,3′:3,4]pyrazolo[5,1-d][1,2,5]oxadiazepine-10(2H)-carboxamide], for which the EC50 under setting [1] fell in the range of 1 to 100 nM.

As to `CN1OC(C(=O)N2CCC(F)(F)C2)Cn2nc3c(c2C1=O)CN(C(=O)Nc1ccc(F)c(Cl)c1)CC3` (stereo not drawn) [Compound 132, N-(3-chloro-4-fluorophenyl)-4-(3,3-difluoropyrrolidine-1-carbonyl)-2-methyl-1-oxo-1,4,5,8,9,11-hexahydropyrido[4′,3′:3,4]pyrazolo[5,1-d][1,2,5]oxadiazepine-10(2H)-carboxamide], the EC50 under setting [1] is 1 to 100 nM.

As for `CN(CC(F)(F)F)C(=O)C1Cn2nc3c(c2C(=O)N(C)O1)CN(C(=O)Nc1ccc(F)c(Cl)c1)CC3` (stereo not drawn) [Compound 133, N10-(3-chloro-4-fluorophenyl)-N4,2-dimethyl-1-oxo-N4-(2,2,2-trifluoroethyl)-1,4,5,8,9,11-hexahydropyrido[4′,3′:3,4]pyrazolo[5,1-d][1,2,5]oxadiazepine-4,10(2H)-dicarboxamide], the EC50 under setting [1] is 1 to 100 nM.

Regarding `CN(CC(F)F)C(=O)C1Cn2nc3c(c2C(=O)N(C)O1)CN(C(=O)Nc1ccc(F)c(Cl)c1)CC3` (stereo not drawn) [Compound 134, N10-(3-chloro-4-fluorophenyl)-N4-(2,2-difluoroethyl)-N4,2-dimethyl-1-oxo-1,4,5,8,9,11-hexahydropyrido[4′,3′:3,4]pyrazolo[5,1-d][1,2,5]oxadiazepine-4,10(2H)-dicarboxamide], under setting [1], the concentration giving a half-maximal response (EC50) fell in the range of 1 to 100 nM.

On to `CN1OC(C(=O)NCC(F)(F)F)Cn2nc3c(c2C1=O)CN(C(=O)Nc1ccc(F)c(Cl)c1)CC3` (stereo not drawn) [Compound 135, N10-(3-chloro-4-fluorophenyl)-2-methyl-1-oxo-N4-(2,2,2-trifluoroethyl)-1,4,5,8,9,11-hexahydropyrido[4′,3′:3,4]pyrazolo[5,1-d][1,2,5]oxadiazepine-4,10(2H)-dicarboxamide], for which, under setting [1], the EC50 lay within 1 to 100 nM.

Take `CN1OC(C(=O)NCC(F)F)Cn2nc3c(c2C1=O)CN(C(=O)Nc1ccc(F)c(Cl)c1)CC3` (stereo not drawn) [Compound 136, N10-(3-chloro-4-fluorophenyl)-N4-(2,2-difluoroethyl)-2-methyl-1-oxo-1,4,5,8,9,11-hexahydropyrido[4′,3′:3,4]pyrazolo[5,1-d][1,2,5]oxadiazepine-4,10(2H)-dicarboxamide]: the EC50 under setting [1] is 1 to 100 nM.

Take `CN(CC(F)F)C(=O)C1Cn2nc3c(c2C(=O)N(C)O1)CN(C(=O)Nc1ccc(F)c(Cl)c1F)CC3` (stereo not drawn) [Compound 158, N10-(3-chloro-2,4-difluorophenyl)-N4-(2,2-difluoroethyl)-N4,2-dimethyl-1-oxo-1,4,5,8,9,11-hexahydropyrido[4′,3′:3,4]pyrazolo[5,1-d][1,2,5]oxadiazepine-4,10(2H)-dicarboxamide]: the EC50 under setting [1] is 1 to 100 nM.

On to `CN(CC(F)F)C(=O)C1Cn2nc3c(c2C(=O)N(C)O1)CN(C(=O)Nc1cc(Cl)c(F)cc1F)CC3` (stereo not drawn) [Compound 159, N10-(5-chloro-2,4-difluorophenyl)-N4-(2,2-difluoroethyl)-N4,2-dimethyl-1-oxo-1,4,5,8,9,11-hexahydropyrido[4′,3′:3,4]pyrazolo[5,1-d][1,2,5]oxadiazepine-4,10(2H)-dicarboxamide], for which, under setting [1], the concentration giving a half-maximal response (EC50) fell in the range of 1 to 100 nM.

Regarding `CN(CC(F)F)C(=O)C1Cn2nc3c(c2C(=O)N(C)O1)CN(C(=O)Nc1ccc(F)c(C#N)c1)CC3` (stereo not drawn) [Compound 160, N10-(3-cyano-4-fluorophenyl)-N4-(2,2-difluoroethyl)-N4,2-dimethyl-1-oxo-1,4,5,8,9,11-hexahydropyrido[4′,3′:3,4]pyrazolo[5,1-d][1,2,5]oxadiazepine-4,10(2H)-dicarboxamide], the EC50 under setting [1] fell in the range of 1 to 100 nM.

Turning to `CN(CC(F)F)C(=O)C1Cn2nc3c(c2C(=O)N(C)O1)CN(C(=O)Nc1ccc(F)c(C#N)c1F)CC3` (stereo not drawn) [Compound 161, N10-(3-cyano-2,4-difluorophenyl)-N4-(2,2-difluoroethyl)-N4,2-dimethyl-1-oxo-1,4,5,8,9,11-hexahydropyrido[4′,3′:3,4]pyrazolo[5,1-d][1,2,5]oxadiazepine-4,10(2H)-dicarboxamide], the EC50 under setting [1] lay within 1 to 100 nM.
